Where two headings read alike, the source gives them in different places.
System: HCV 1b-377-neo replicon cells
Assay: HCV replicon assay, HCV 1b-377-neo replicon cells (1b FRET)
Format: cell-based, Hepatitis C virus genotype 1b
Conditions: HCV 1b-377-neo replicon cells, HCV 1b genotype, read-out: EC50 range against HCV 1b (Table 2, Range)
Method in brief: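 Compounds tested in HCV genotype 1b-377-neo replicon cells with a FRET read-out. Cells resistant to a reference NS5A inhibitor through a Y2065H NS5A mutation were run alongside wild-type cells.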

Compound	EC50 (Hepatitis C virus)	EC50
COC(=O)N[C@@H](C(=O)N1CCC[C@H]1c1ncc(-c2ccc(-c3ccc(-c4cnc([C@@H]5CCCN5C(=O)CN5CCN(C)CC5)[nH]4)cc3)cc2)[nH]1)c1ccccc1 [Example 57, methyl ((1R)-2-((2S)-2-(5-(4′-(2-((2S)-1-((4-methyl-1-piperazinyl)acetyl)-2-pyrrolidinyl)-1H-imidazol-5-yl)-4-biphenylyl)-1H-imidazol-2-yl)-1-pyrrolidinyl)-2-oxo-1-phenylethyl)carbamate]	0.001 to 0.999 nM	–
COC(=O)NC(C(=O)N1CCCC1c1nc(-c2ccc(-c3ccc(-c4cnc(C5CCCN5C(=O)CN5CCCC5)[nH]4)cc3)cc2)c[nH]1)c1ccccc1 [Example 58, methyl ((1R)-2-oxo-1-phenyl-2-((2S)-2-(5-(4′-(2-((2S)-1-(1-pyrrolidinylacetyl)-2-pyrrolidinyl)-1H-imidazol-5-yl)-4-biphenylyl)-1H-imidazol-2-yl)-1-pyrrolidinyl)ethyl)carbamate]	–	0.001 to 0.999 nM
COC(=O)N[C@@H](C(=O)N1CCC[C@H]1c1ncc(-c2ccc(-c3ccc(-c4cnc([C@@H]5CCCN5C(=O)[C@@H]5CCCO5)[nH]4)cc3)cc2)[nH]1)c1ccccc1 [Example 59, methyl ((1R)-2-oxo-1-phenyl-2-((2S)-2-(5-(4′-(2-((2S)-1-((2S)-tetrahydro-2-furanylcarbonyl)-2-pyrrolidinyl)-1H-imidazol-5-yl)-4-biphenylyl)-1H-imidazol-2-yl)-1-pyrrolidinyl)ethyl)carbamate]	0.001 to 0.999 nM	–
COC(=O)N[C@@H](C(=O)N1CCC[C@H]1c1ncc(-c2ccc(-c3ccc(-c4cnc([C@@H]5CCCN5C(=O)C5(O)CC5)[nH]4)cc3)cc2)[nH]1)c1ccccc1 [Example 60, methyl ((1R)-2-((2S)-2-(5-(4′-(2-((2S)-1-((1-hydroxycyclopropyl)carbonyl)-2-pyrrolidinyl)-1H-imidazol-5-yl)-4-biphenylyl)-1H-imidazol-2-yl)-1-pyrrolidinyl)-2-oxo-1-phenylethyl)carbamate]	0.001 to 0.999 nM	–
COC(=O)N[C@@H](C(=O)N1CCC[C@H]1c1ncc(-c2ccc(-c3ccc(-c4cnc([C@@H]5CCCN5C(=O)Cc5cnc[nH]5)[nH]4)cc3)cc2)[nH]1)c1ccccc1 [Example 61, methyl ((1R)-2-((2S)-2-(5-(4′-(2-((2S)-1-(1H-imidazol-5-ylacetyl)-2-pyrrolidinyl)-1H-imidazol-5-yl)-4-biphenylyl)-1H-imidazol-2-yl)-1-pyrrolidinyl)-2-oxo-1-phenylethyl)carbamate]	0.001 to 0.999 nM	–
COC(=O)N[C@@H](C(=O)N1CCC[C@H]1c1ncc(-c2ccc(-c3ccc(-c4cnc([C@@H]5CCCN5C(=O)Cc5cn(C)cn5)[nH]4)cc3)cc2)[nH]1)c1ccccc1 [Example 62, methyl ((1R)-2-((2S)-2-(5-(4′-(2-((2S)-1-((1-methyl-1H-imidazol-4-yl)acetyl)-2-pyrrolidinyl)-1H-imidazol-5-yl)-4-biphenylyl)-1H-imidazol-2-yl)-1-pyrrolidinyl)-2-oxo-1-phenylethyl)carbamate]	0.001 to 0.999 nM	–
COC(=O)N[C@@H](C(=O)N1CCC[C@H]1c1ncc(-c2ccc(-c3ccc(-c4cnc([C@@H]5CCCN5C(=O)c5ncc[nH]5)[nH]4)cc3)cc2)[nH]1)c1ccccc1 [Example 63, methyl ((1R)-2-((2S)-2-(5-(4′-(2-((2S)-1-(1H-imidazol-2-ylcarbonyl)-2-pyrrolidinyl)-1H-imidazol-5-yl)-4-biphenylyl)-1H-imidazol-2-yl)-1-pyrrolidinyl)-2-oxo-1-phenylethyl)carbamate]	0.001 to 0.999 nM	–
COC(=O)N[C@@H](C(=O)N1CCC[C@H]1c1ncc(-c2ccc(-c3ccc(-c4cnc([C@@H]5CCCN5C(=O)C(c5ccccc5)N5CCC(O)CC5)[nH]4)cc3)cc2)[nH]1)c1ccccc1 (stereo partly drawn) [Example 64, methyl ((1R)-2-((2S)-2-(5-(4′-(2-((2S)-1-((4-hydroxy-1-piperidinyl)(phenyl)acetyl)-2-pyrrolidinyl)-1H-imidazol-5-yl)-4-biphenylyl)-1H-imidazol-2-yl)-1-pyrrolidinyl)-2-oxo-1-phenylethyl)carbamate]	0.001 to 0.999 nM	–
COC(=O)N[C@@H](C(=O)N1CCC[C@H]1c1ncc(-c2ccc(-c3ccc(-c4cnc([C@@H]5CCCN5C(=O)Cc5nnn[nH]5)[nH]4)cc3)cc2)[nH]1)c1ccccc1 [Example 65, methyl ((1R)-2-oxo-1-phenyl-2-((2S)-2-(5-(4′-(2-((2S)-1-(1H-tetrazol-5-ylacetyl)-2-pyrrolidinyl)-1H-imidazol-5-yl)-4-biphenylyl)-1H-imidazol-2-yl)-1-pyrrolidinyl)ethyl)carbamate]	1 to 99 nM	–
COC(=O)N[C@@H](C(=O)N1CCC[C@H]1c1ncc(-c2ccc(-c3ccc(-c4cnc([C@@H]5CCCN5C(=O)c5ccccn5)[nH]4)cc3)cc2)[nH]1)c1ccccc1 [Example 67, methyl ((1R)-2-oxo-1-phenyl-2-((2S)-2-(5-(4′-(2-((2S)-1-(2-pyridinylcarbonyl)-2-pyrrolidinyl)-1H-imidazol-5-yl)-4-biphenylyl)-1H-imidazol-2-yl)-1-pyrrolidinyl)ethyl)carabamate]	–	0.001 to 0.999 nM
COC(=O)N[C@@H](C(=O)N1CCC[C@H]1c1ncc(-c2ccc(-c3ccc(-c4cnc([C@@H]5CCCN5C(=O)c5cccnc5)[nH]4)cc3)cc2)[nH]1)c1ccccc1 [Example 68, methyl ((1R)-2-oxo-1-phenyl-2-((2S)-2-(5-(4′-(2-((2S)-1-(3-pyridinylcarbonyl)-2-pyrrolidinyl)-1H-imidazol-5-yl)-4-biphenylyl)-1H-imidazol-2-yl)-1-pyrrolidinyl)ethyl)carbamate]	0.001 to 0.999 nM	–
COC(=O)N[C@@H](C(=O)N1CCC[C@H]1c1ncc(-c2ccc(-c3ccc(-c4cnc([C@@H]5CCCN5C(=O)c5ccncc5)[nH]4)cc3)cc2)[nH]1)c1ccccc1 [Example 69, methyl ((1R)-2-((2S)-2-(5-(4′-(2-((2S)-1-isonicotinoyl-2-pyrrolidinyl)-1H-imidazol-5-yl)-4-biphenylyl)-1H-imidaozl-2-yl)-1-pyrrolidinyl)-2-oxo-1-phenylethyl)carbamate]	–	0.001 to 0.999 nM
COC(=O)N[C@@H](C(=O)N1CCC[C@H]1c1ncc(-c2ccc(-c3ccc(-c4cnc([C@@H]5CCCN5C(=O)[C@@H]5C[C@@H](F)CN5C)[nH]4)cc3)cc2)[nH]1)c1ccccc1 [Example 70, methyl ((1R)-2-((2S)-2-(5-(4′-(2-((2S)-1-((4R)-4-fluoro-1-methyl-L-prolyl)-2-pyrrolidinyl)-1H-imidazol-5-yl)-4-biphenylyl)-1H-imidazol-2-yl)-1-pyrrolidinyl)-2-oxo-1-phenylethyl)carbamate]	1 to 99 nM	–
COC(=O)N[C@@H](C(=O)N1CCC[C@H]1c1ncc(-c2ccc(-c3ccc(-c4cnc([C@@H]5CCCN5C(=O)c5ncco5)[nH]4)cc3)cc2)[nH]1)c1ccccc1 [Example 71, methyl ((1R)-2-((2S)-2-(5-(4′-(2-((2S)-1-(1,3-oxazol-2-ylcarbonyl)-2-pyrrolidinyl)-1H-imidazol-5-yl)-4-biphenylyl)-1H-imidazol-2-yl)-1-pyrrolidinyl)-2-oxo-1-phenylethyl)carbamate]	0.001 to 0.999 nM	–
COC(=O)N[C@@H](C(=O)N1CCC[C@H]1c1ncc(-c2ccc(-c3ccc(-c4cnc([C@@H]5CCCN5C(=O)c5cnco5)[nH]4)cc3)cc2)[nH]1)c1ccccc1 [Example 72, methyl ((1R)-2-((2S)-2-(5-(4′-(2-((2S)-1-(1,3-oxazol-5-ylcarbonyl)-2-pyrrolidinyl)-1H-imidazol-5-yl)-4-biphenylyl)-1H-imidazol-2-yl)-1-pyrrolidinyl)-2-oxo-1-phenylethy)carbamate]	–	1 to 99 nM
COC(=O)N[C@@H](C(=O)N1CCC[C@H]1c1ncc(-c2ccc(-c3ccc(-c4cnc([C@@H]5CCCN5C(=O)C(=O)N(C)C)[nH]4)cc3)cc2)[nH]1)c1ccccc1 [Example 73, methyl ((1R)-2-((2S)-2-(5-(4′-(2-((2S)-1-((dimethylamino)(oxo)acetyl)-2-pyrrolidinyl)-1H-imidazol-5-yl)-4-biphenylyl)-1H-imidazol-2-yl)-1-pyrrolidinyl)-2-oxo-1-phenylethyl)carbamate]	0.001 to 0.999 nM	–
COC(=O)N[C@@H](C(=O)N1CCC[C@H]1c1ncc(-c2ccc(-c3ccc(-c4cnc([C@@H]5CCCN5C(=O)C5CCOC5)[nH]4)cc3)cc2)[nH]1)c1ccccc1 (stereo partly drawn) [Example 74, methyl ((1R)-2-oxo-1-phenyl-2-((2S)-2-(5-(4′-(2-((2S)-1-(tetrahydro-3-furanylcarbonyl)-2-pyrrolidinyl)-1H-imidazol-5-yl)-4-biphenylyl)-1H-imidazol-2-yl)-1-pyrrolidinyl)ethyl)carbamate]	0.001 to 0.999 nM	–
COC(=O)N[C@@H](C)C(=O)N1CCC[C@H]1c1ncc(-c2ccc(-c3ccc(-c4cnc([C@@H]5CCCN5C(=O)[C@H](NC(=O)OC)c5ccccc5)[nH]4)cc3)cc2)[nH]1 [Example 75, methyl ((1R)-2-((2S)-2-(5-(4′-(2-((2S)-1-(N-(methoxycarbonyl)-L-alanyl)-2-pyrrolidinyl)-1H-imidazol-5-yl)-4-biphenylyl)-1H-imidazol-2-yl)-1-pyrrolidinyl)-2-oxo-1-phenylethyl)carbamate]	0.001 to 0.999 nM	–
COC(=O)N[C@@H](C(=O)N1CCC[C@H]1c1ncc(-c2ccc(-c3ccc(-c4cnc([C@@H]5CCCN5C(=O)[C@H](C)N(C)C)[nH]4)cc3)cc2)[nH]1)c1ccccc1 [Example 76, methyl ((1R)-2-((2S)-2-(5-(4′-(2-((2S)-1-(N,N-dimethyl-L-alanyl)-2-pyrrolidinyl)-1H-imidazol-5-yl)-4-biphenylyl)-1H-imidazol-2-yl)-1-pyrrolidinyl)-2-oxo-1-phenylethyl)carbamate]	0.001 to 0.999 nM	–
COC(=O)N[C@@H](C(=O)N1CCC[C@H]1c1ncc(-c2ccc(-c3ccc(-c4cnc([C@@H]5CCCN5C(=O)OC)[nH]4)cc3)cc2)[nH]1)c1ccccc1 [Example 77, methyl (2S)-2-(5-(4′-(2-((2S)-1-((2R)-2-((methoxycarbonyl)amino)-2-phenylacetyl)-2-pyrrolidinyl)-1H-imidazol-5-yl)-4-biphenylyl)-1H-imidazol-2-yl)-1-pyrrolidinecarboxylate]	0.001 to 0.999 nM	–
